Measurements taken from ChEMBL document CHEMBL3112494, “Heterocyclic core analogs of a direct thrombin inhibitor” (Bioorg Med Chem Lett, 2014).

Tests used:
[1] = molecular target: Cytochrome P450 2C9 (Homo sapiens, UniProt P11712); experiment: Inhibition of CYP2C9 (unknown origin) up to 50 uM; format: ADME
[2] = molecular target: Cytochrome P450 2D6 (Homo sapiens, UniProt P10635); experiment: Inhibition of CYP2D6 (unknown origin) up to 50 uM; format: ADME
[3] = Metabolic stability in dog hepatocytes assessed as compound remaining after 90 mins; format: ADME, cell-based, Canis lupus familiaris, Hepatocyte; conditions: read-out: Stability
[4] = molecular target: Cytochrome P450 3A4 (Homo sapiens, UniProt P08684); experiment: Inhibition of CYP3A4 (unknown origin) up to 50 uM; format: ADME
[5] = Volume of distribution in dog at 0.3 mg/kg, iv; format: ADME, organism-based, Canis lupus familiaris; parameters: dose 0.3 mg/kg, route intravenous; conditions: in vivo
[6] = AUC in dog at 0.3 mg/kg, iv; format: ADME, organism-based, Canis lupus familiaris; parameters: dose 0.3 mg/kg, route intravenous; conditions: plasma
[7] = Clearance in dog at 0.3 mg/kg, iv; format: ADME, organism-based, Canis lupus familiaris; parameters: dose 0.3 mg/kg, route intravenous; conditions: in vivo
[8] = Half life in dog at 0.3 mg/kg, iv; format: ADME, organism-based, Canis lupus familiaris; parameters: dose 0.3 mg/kg, route intravenous; conditions: in vivo
[9] = molecular target: Trypsin (Homo sapiens, UniProt P07477+P07478+P35030); experiment: Inhibition of trypsin (unknown origin); format: protein assay
[10] = molecular target: Coagulation factor X (Homo sapiens, UniProt P00742); experiment: Inhibition of factor 10a (unknown origin)
[11] = molecular target: T1, Coagulation factor XII (Homo sapiens, UniProt P00748); experiment: Inhibition of factor 12a (unknown origin)
T1 sequence (P00748 whole entry): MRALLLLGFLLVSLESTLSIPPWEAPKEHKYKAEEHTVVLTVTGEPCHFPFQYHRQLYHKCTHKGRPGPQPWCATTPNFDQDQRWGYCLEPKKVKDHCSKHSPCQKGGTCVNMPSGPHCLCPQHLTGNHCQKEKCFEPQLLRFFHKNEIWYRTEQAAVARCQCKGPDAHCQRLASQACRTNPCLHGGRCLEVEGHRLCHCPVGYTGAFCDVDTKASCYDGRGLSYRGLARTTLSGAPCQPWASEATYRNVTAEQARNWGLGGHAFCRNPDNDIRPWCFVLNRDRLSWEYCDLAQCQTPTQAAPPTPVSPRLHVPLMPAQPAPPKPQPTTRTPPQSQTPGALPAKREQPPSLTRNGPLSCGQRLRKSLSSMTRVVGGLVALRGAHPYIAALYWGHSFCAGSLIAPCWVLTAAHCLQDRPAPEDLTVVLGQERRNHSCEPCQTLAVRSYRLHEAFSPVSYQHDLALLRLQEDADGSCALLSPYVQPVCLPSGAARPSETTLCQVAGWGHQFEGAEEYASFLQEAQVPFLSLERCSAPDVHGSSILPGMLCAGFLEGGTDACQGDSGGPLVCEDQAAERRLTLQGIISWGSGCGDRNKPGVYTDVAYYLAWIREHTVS

[12] = molecular target: T2, Coagulation factor VII (Homo sapiens, UniProt P08709); experiment: Inhibition of factor 7a (unknown origin)
T2 sequence (P08709 whole entry): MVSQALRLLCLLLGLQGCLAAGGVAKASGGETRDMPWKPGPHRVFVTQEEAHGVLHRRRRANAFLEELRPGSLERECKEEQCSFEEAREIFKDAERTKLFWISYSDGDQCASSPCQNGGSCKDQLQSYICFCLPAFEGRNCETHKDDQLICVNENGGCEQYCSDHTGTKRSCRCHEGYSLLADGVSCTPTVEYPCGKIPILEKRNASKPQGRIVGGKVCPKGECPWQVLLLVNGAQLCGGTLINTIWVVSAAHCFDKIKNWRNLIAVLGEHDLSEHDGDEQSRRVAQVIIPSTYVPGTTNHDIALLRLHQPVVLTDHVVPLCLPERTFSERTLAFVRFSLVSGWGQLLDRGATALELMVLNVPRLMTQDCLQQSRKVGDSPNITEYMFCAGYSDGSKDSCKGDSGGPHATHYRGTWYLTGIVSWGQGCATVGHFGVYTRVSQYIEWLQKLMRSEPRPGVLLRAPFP

[13] = molecular target: Coagulation factor IX (Homo sapiens, UniProt P00740); experiment: Inhibition of factor 9a (unknown origin)
[14] = molecular target: Prothrombin (Homo sapiens, UniProt P00734); experiment: Inhibition of thrombin (unknown origin)

Coagulation factor X, sequence (P00742 41-179 limits assumed): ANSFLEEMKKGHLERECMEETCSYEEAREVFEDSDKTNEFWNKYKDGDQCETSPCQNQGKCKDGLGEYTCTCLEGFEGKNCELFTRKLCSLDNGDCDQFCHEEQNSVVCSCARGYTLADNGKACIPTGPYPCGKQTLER
Coagulation factor X, sequence (P00742 235-488 limits assumed): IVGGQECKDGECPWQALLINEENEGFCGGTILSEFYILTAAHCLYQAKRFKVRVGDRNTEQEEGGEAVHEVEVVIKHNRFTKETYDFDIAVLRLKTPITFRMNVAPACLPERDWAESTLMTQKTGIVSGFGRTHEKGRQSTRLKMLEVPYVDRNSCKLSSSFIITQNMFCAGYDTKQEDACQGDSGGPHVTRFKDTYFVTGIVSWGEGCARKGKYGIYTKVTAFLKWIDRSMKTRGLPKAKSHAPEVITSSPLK
Cytochrome P450 3A4, sequence (P08684 whole entry): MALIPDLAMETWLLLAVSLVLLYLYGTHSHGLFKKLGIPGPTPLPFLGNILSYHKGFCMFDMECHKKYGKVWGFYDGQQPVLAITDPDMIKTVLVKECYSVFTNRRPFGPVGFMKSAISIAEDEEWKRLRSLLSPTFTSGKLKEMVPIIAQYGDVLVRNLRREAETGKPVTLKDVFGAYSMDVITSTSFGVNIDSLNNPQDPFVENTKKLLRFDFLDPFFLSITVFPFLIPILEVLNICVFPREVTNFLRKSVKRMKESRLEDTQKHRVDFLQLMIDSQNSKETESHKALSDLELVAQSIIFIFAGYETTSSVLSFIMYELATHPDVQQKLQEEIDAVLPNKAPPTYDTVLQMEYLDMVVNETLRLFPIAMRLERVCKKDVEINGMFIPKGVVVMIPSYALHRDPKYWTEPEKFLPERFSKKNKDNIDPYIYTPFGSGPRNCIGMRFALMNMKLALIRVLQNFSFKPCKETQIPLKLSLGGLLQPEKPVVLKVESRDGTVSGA
Cytochrome P450 2D6, sequence (P10635 whole entry): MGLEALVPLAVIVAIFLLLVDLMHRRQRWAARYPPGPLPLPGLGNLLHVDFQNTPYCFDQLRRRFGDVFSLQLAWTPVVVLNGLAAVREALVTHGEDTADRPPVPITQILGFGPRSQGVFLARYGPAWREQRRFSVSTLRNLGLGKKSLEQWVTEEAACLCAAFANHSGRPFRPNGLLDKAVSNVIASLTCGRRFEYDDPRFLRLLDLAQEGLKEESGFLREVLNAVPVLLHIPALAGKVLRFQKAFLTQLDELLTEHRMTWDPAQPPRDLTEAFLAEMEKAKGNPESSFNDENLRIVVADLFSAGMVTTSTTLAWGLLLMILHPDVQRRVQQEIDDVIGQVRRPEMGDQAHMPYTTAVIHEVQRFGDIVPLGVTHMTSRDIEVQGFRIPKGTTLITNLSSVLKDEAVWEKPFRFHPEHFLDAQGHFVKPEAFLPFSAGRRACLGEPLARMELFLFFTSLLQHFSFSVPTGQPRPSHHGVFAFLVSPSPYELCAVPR
Coagulation factor IX, sequence (P00740 47-191 limits assumed): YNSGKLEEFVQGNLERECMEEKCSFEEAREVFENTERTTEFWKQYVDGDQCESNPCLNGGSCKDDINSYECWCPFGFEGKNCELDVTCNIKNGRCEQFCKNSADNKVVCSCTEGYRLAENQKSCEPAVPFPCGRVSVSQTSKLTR
Coagulation factor IX, sequence (P00740 227-461 limits assumed): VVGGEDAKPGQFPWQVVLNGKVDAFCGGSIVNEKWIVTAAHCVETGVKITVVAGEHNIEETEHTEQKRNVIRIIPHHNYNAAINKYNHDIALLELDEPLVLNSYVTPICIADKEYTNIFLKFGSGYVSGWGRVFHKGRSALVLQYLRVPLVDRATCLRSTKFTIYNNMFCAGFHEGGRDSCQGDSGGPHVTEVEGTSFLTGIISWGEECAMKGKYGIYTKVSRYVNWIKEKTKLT
Cytochrome P450 2C9, sequence (P11712 whole entry): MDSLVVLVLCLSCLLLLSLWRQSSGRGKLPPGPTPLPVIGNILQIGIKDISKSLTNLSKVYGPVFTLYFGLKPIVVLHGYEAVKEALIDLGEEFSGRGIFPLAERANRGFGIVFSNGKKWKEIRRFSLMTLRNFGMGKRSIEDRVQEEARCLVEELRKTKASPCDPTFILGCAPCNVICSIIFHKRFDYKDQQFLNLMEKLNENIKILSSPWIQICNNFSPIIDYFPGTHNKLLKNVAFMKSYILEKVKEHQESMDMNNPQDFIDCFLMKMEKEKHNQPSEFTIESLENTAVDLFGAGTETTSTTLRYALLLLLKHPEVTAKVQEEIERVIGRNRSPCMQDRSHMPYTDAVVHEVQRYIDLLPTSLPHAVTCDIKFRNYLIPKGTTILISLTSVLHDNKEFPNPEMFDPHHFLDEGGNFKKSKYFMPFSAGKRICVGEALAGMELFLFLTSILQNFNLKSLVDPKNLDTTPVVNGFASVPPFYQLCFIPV

| SMILES | inhibition (INH) [1] | inhibition (INH) [2] | remaining at 1.5 h [3] [%] | inhibition (INH) [4] | Vd [5] [L/kg] | AUC [6] [µM·h] | clearance [7] [mL/min/kg] | half-life [8] [h] | Ki [9] [µM] | Ki [10] [µM] | Ki [11] [µM] | Ki [12] [µM] | Ki [13] [µM] | Ki [14] [µM] |
| --- | --- | --- | --- | --- | --- | --- | --- | --- | --- | --- | --- | --- | --- | --- |
| CN1CCN(C(=O)[C@H](O)C(C)(C)C)[C@H](C(=O)NCc2cc(Cl)ccc2CN)C1.O=C(O)C(F)(F)F | Not Active | Not Active | – | Not Active | – | – | – | – | 15 | 3.7 | > 15 | > 15 | – | – |
| CC(C)(C)[C@@H](O)C(=O)N1CCOC[C@H]1C(=O)NCc1cc(Cl)ccc1CN.O=C(O)C(F)(F)F | Not Active | Not Active | – | Not Active | – | – | – | – | 15 | 3.9 | > 15 | > 15 | 15 | – |
| CC(C)(C)[C@@H](O)C(=O)N1CCNC[C@H]1C(=O)NCc1cc(Cl)ccc1CN.O=C(O)C(F)(F)F | Not Active | Not Active | – | Not Active | – | – | – | – | 15 | 4.4 | > 15 | > 15 | 15 | – |
| CC(C)(C)[C@@H](O)C(=O)N1CC[S+]([O-])C[C@H]1C(=O)NCc1cc(Cl)ccc1CN.O=C(O)C(F)(F)F (stereo partly specified) | Not Active | Not Active | – | Not Active | – | – | – | – | – | – | – | – | – | – |

Other lines, results leading:

| inhibition (INH) [1] | inhibition (INH) [2] | remaining at 1.5 h [3] [%] | inhibition (INH) [4] | Vd [5] [L/kg] | AUC [6] [µM·h] | clearance [7] [mL/min/kg] | half-life [8] [h] | Ki [9] [µM] | Ki [10] [µM] | Ki [11] [µM] | Ki [12] [µM] | Ki [13] [µM] | Ki [14] [µM] | SMILES |
| --- | --- | --- | --- | --- | --- | --- | --- | --- | --- | --- | --- | --- | --- | --- |
| Not Active | Not Active | 93 | Not Active | 1.9 | 10 | 3.5 | 6.8 | 5.6 | 1.4 | > 15 | > 15 | > 3 | 0.0015 | CC(C)(C)[C@@H](O)C(=O)N1CCC[C@H]1C(=O)NCc1cc(Cl)ccc1CN.O=C(O)C(F)(F)F |
| Not Active | Not Active | – | Not Active | – | – | – | – | 15 | 3.1 | > 15 | > 15 | – | – | CC(C)(C)[C@@H](O)C(=O)N1CCS(=O)(=O)C[C@H]1C(=O)NCc1cc(Cl)ccc1CN.O=C(O)C(F)(F)F |
| Not Active | Not Active | 76 | Not Active | 2.3 | 1 | 12.8 | 2.7 | 9.4 | 0.9 | > 15 | > 15 | – | – | CC(C)(C)[C@@H](O)C(=O)N1CCSC[C@H]1C(=O)NCc1cc(Cl)ccc1CN.O=C(O)C(F)(F)F |
| Not Active | Not Active | – | Not Active | – | – | – | – | 10.6 | 1.8 | > 15 | > 15 | – | – | CC(C)(C)[C@@H](O)C(=O)N1CCCC[C@H]1C(=O)NCc1cc(Cl)ccc1CN.O=C(O)C(F)(F)F |
